{
  "source": "patent US20220347141A1",
  "about": "“METHODS OF TREATING PHOSPHATE CONCENTRATION DISORDERS WITH L-BAIBA” (YALE UNIVERSITY, priority 2019, published 2022)",
  "key": {"FGF23": {"target": "T1, FGF23 (Homo sapiens, UniProt Q9GZV9)", "T1 construct": "individuals treated with burosumab (Crysvita), an FGF23-neutralizing antibody therapy for XLH; endogenous in cells; host or cells: patients with XLH (in vivo, circulating hormone)", "T1 sequence (Q9GZV9 25-251)": "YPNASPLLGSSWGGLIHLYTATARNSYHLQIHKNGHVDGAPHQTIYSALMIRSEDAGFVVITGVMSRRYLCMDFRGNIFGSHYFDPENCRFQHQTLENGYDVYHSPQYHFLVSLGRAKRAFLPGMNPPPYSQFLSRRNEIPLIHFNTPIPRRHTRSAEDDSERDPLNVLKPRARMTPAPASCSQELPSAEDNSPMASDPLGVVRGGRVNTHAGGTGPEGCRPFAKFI", "conditions": "individuals with XLH treated with burosumab; cited from earlier work"}, "WT mice": {"test_system": "WT mice", "assay": "L-BAIBA or D-BAIBA in the drinking water of WT mice: urine Pi excretion, plasma Pi, plasma intact FGF23", "assay_type": "in vivo, mouse", "method": "FIG. 5A: 5 mo. old males treated with CO, L-BAIBA, or D-BAIBA in the drinking water for 5 days. FIGS. 5B-5D: same 5 mo. old males from FIG. 5A treated for 30 days, following sacrifice in addition to urine Pi/urine creatinine, plasma Pi and plasma intact FGF23 were determined. Data are mean±SEM, ****p<0.00002, ***p=0.0002, **p=0.002, *p=0.03 vs. CO.\nMouse lines are back-crossed to C57BL6 mice (Charles river laboratories strain ID 027) to reduce variation caused by genetic background and fed a standard chow containing 0.3% bio-available Pi (Teklad 2018S) or for selective experiments a high Pi (HPD diet, 1.2% bio-available Pi, Teklad TD85349). L-BAIBA can be supplied in the drinking water (see Chemical Reagents below). PCR-based genotyping can be done on each experimental animal using gDNA prepared by alkaline lysis from a tail- or ear-snip to verify presence of the Pit1 null, Pit2 null, HA-hPIT1^tg/+ and HSA-Cre^tg/+ alleles.\nAll blood and urine studies for calcium, creatinine, phosphorus, iPTH, and c/iFGF23 can be performed using commercially available Stanbio kits, Immutopics and R&D ELISAs, or LC-MS/MS-based methods. […] Results can be analyzed using a Perkin Elmer 1420 Multilabel Counter Victor 3 currently located at the Anlyan Center, S-120 or using an Applied Biosystems API6500 QTrap interfaced to a Shimadzu HPLC (LC-20AD, SIL-20AC, CTO-20A) currently located in Anlyan Center, S-260. […]"}, "MRGPRD": {"target": "T2, MRGPRD (Mus musculus, UniProt Q91ZB8)", "T2 construct": "young osteocytes which express high levels of MRGPRD; endogenous in cells; host or cells: osteocytes of young mice (in vivo, hind-limb suspension)", "T2 sequence (Q91ZB8 1-321)": "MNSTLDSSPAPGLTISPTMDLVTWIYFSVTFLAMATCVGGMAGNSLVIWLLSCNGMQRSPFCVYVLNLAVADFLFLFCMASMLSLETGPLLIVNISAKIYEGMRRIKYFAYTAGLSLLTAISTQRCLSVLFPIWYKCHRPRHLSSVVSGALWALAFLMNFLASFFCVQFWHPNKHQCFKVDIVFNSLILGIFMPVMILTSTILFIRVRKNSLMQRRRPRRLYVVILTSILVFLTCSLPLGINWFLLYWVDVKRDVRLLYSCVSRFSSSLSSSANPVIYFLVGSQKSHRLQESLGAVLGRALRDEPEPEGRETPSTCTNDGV", "conditions": "young mice, cited from earlier work"}, "FGF23 synthesis in bone": {"test_system": "FGF23 synthesis in bone", "assay": "Stimulation of FGF23 synthesis in bone", "assay_type": "in vivo", "conditions": "resulting in unsuppressed FGF23 levels"}},
  "note": "Entries after “also recorded” stand apart in the source; their conditions may differ.",
  "data": [
    {"compound": "burosumab: an FGF23-neutralizing antibody therapy for XLH", "values": [
      {"measurement": "fatigue and endurance reported by treated individuals", "setting": "FGF23", "value": "improved fatigue and endurance"}
    ]},
    {"compound": "C[C@@H](CN)C(=O)O", "note": "[L-BAIBA, (S)-3-amino-2-methylpropanoic acid]", "values": [
      {"measurement": "urine Pi excretion (urine Pi/urine creatinine)", "setting": "WT mice; 5 mo. old male WT mice, in the drinking water for 5 or 30 days, vs. CO", "value": "increased renal Pi-excretion; also recorded: increases urine Pi excretion; also recorded: caused a renal Pi leak"},
      {"measurement": "FGF23 levels (plasma intact FGF23)", "setting": "WT mice; 5 month old WT mice treated with L-BAIBA", "value": "inappropriately normal"},
      {"measurement": "osteocyte survival", "setting": "MRGPRD; activation of MRGPRD, maintaining mitochondrial integrity", "value": "promotes osteocyte survival"},
      {"measurement": "bone loss caused by hind-limb suspension", "setting": "MRGPRD", "value": "prevents bone loss"},
      {"measurement": "FGF23 synthesis in bone", "setting": "FGF23 synthesis in bone", "value": "able to stimulate FGF23 synthesis in bone"}
    ]}
  ]
}
